Measurements published in patent US6608055B2, “Crystalline anticholinergic, processes for preparing it and its use for preparing a pharmaceutical composition” (Boehringer Ingelheim Pharma KG, priority 2001, dated 2003).

Assay: storage of the anhydrous form at controlled relative humidity (preservation of anhydrous state)
Assay type: physicochemical
Conditions: coarse crystals, r.h. = relative humidity
Procedure: Alternatively to the drying step at elevated temperature under reduced pressure described above, the anhydrous form may also be prepared by storing the crystalline tiotropium bromide monohydrate over a drying agent, preferably over dried silica gel at ambient temperature for a period of 12 to 96 hours, preferably 18 to 72 hours, most preferably at least 24 hours. The anhydrous form thus obtained should be stored more or less dry, depending on the particle size, to preserve its anhydrous state. In the case of coarse crystals of anhydrous tiotropium bromide, which may be prepared for example as described above, storage at <75% r.h. (relative humidity) is sufficient to maintain the anhydrous state. In the micronised state, i.e. where the material has a much larger surface area, water may even be absorbed at lower humidity levels. In order to maintain the anhydrous form in the micronised state, it is therefore advisable to store the anhydrous form of tiotropium bromide over dried silica gel until it is further processed to form the desired inhalable powder containing suitable excipients (e.g. lactose) in addition to tiotropium bromide.

C[N+]1(C)C2C[C@H](OC(=O)C(O)(c3cccs3)c3cccs3)CC1[C@H]1OC21 (stereo partly drawn) [anhydrous tiotropium bromide, (1α,2β,4β,5α,7β)-7-[(hydroxydi-2-thienylacetyl)oxy]-9,9-dimethyl-3-oxa-9-azoniatricyclo[3.3.1.0^2,4]nonane-bromide]
relative humidity of storage sufficient to maintain the anhydrous state: < 75 % r.h.
